Data on two compounds can be found in paper PMC11514586, “Development of Novel ROCK Inhibitors via 3D-QSAR and Molecular Docking Studies: A Framework for Multi-Target Drug Design” (Pharmaceutics, 2024).

What all share (assay type): biochemical
One assay concerns the target ROCK1 (Homo sapiens, UniProt Q13464). The assay can be described thus: radiometric […]-ATP P81 filter binding kinase assay, 10-dose IC50 ([…] ATP).
The target in assay [1] is T1, ROCK2 (Homo sapiens, UniProt O75116). The assay is described as above.
Assay [2] addresses T1, ROCK2. Put plainly: radiometric […]-ATP kinase assay, single concentration […], percent inhibition.

Each structure is given as a SMILES string.

T1 sequence (O75116 whole entry): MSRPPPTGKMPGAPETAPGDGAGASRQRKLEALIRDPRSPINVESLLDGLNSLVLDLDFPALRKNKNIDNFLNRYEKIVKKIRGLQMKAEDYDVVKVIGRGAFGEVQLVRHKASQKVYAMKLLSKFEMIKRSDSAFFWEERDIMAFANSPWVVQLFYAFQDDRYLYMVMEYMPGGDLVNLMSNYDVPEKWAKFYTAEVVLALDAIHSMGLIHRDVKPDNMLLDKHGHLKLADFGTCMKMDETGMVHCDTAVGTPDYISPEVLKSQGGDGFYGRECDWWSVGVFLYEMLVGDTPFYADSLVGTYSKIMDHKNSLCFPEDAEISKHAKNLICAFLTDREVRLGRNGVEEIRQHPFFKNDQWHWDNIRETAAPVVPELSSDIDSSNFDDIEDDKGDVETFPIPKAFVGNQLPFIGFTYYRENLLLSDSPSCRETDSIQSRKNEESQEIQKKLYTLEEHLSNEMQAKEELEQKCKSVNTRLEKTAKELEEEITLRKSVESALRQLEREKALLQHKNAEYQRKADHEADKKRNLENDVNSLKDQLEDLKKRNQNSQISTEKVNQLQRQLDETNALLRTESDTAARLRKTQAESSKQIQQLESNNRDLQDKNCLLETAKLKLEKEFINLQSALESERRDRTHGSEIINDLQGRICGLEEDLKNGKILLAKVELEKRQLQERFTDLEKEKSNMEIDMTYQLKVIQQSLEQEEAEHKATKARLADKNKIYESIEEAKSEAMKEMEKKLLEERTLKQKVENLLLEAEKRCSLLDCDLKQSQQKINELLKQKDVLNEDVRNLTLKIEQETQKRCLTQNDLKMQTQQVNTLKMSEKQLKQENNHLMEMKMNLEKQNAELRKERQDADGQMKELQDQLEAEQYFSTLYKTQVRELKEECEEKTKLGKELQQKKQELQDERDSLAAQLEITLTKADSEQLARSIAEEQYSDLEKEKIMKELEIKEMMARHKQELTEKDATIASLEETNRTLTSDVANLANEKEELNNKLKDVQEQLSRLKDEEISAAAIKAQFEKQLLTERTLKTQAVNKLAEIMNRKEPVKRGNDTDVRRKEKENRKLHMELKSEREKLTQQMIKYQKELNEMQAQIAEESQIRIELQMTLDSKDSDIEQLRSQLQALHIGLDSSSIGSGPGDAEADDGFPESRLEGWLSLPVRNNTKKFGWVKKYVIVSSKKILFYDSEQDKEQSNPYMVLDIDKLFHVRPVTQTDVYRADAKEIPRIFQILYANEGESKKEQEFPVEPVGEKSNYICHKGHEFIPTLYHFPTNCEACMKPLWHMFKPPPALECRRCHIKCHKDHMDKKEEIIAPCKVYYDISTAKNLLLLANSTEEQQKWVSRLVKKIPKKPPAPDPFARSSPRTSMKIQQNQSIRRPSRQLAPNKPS
ROCK1, sequence (Q13464 2-1354): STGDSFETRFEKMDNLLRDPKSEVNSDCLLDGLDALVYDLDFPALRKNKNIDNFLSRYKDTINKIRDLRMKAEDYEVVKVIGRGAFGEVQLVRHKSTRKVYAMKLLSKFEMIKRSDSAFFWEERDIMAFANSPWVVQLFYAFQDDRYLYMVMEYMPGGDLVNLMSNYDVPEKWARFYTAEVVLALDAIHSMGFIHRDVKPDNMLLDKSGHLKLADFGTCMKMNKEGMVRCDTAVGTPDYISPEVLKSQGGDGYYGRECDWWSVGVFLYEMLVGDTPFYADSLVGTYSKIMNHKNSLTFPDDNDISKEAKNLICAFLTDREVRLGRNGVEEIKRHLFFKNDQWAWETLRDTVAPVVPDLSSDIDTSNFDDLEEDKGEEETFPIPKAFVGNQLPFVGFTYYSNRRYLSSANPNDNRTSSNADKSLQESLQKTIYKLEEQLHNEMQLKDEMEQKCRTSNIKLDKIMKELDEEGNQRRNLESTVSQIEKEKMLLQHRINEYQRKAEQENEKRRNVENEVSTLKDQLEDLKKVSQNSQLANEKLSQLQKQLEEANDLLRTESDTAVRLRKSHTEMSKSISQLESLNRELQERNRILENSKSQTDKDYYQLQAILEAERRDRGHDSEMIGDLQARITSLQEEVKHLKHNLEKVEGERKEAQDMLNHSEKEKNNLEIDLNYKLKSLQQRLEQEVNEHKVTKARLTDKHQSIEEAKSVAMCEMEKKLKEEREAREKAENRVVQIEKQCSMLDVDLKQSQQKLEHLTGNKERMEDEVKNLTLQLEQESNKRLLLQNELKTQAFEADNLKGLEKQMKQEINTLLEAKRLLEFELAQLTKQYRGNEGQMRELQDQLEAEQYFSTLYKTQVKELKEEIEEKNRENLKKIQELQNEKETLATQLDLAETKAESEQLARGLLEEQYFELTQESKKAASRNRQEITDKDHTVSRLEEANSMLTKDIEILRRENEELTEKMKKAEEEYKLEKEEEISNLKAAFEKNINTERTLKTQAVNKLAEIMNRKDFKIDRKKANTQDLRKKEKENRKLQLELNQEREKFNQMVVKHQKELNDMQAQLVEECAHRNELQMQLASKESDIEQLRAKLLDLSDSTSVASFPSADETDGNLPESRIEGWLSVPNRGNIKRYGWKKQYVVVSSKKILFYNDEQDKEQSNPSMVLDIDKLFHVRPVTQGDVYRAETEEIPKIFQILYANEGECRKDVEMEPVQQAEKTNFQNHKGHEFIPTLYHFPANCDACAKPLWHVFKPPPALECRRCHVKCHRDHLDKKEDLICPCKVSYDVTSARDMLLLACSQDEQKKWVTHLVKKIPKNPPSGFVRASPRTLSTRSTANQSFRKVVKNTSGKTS

By IC50 is commonly meant the concentration needed to halve the response being measured. As to `Cc1cc(F)ccc1CN1CCCN(S(=O)(=O)c2cccc3cnccc23)CC1` [C-19, 5-[4-(4-Fluoro-2-methyl-benzyl)-[1,4]diazepane-1sulfonyl]-isoquinoline], the IC50 at ROCK1 was 4.22 µM; on ROCK2 [1] it was 6.13 µM. A word on the inhibition: it is the drop in the measured response relative to a control, in per cent. Read a high inhibition as a strong effect. As to `COc1cc(CN2CCCN(C(=O)/C=C/c3ccncc3)CC2)ccc1O` [C-22, 1-[4-(4-Hydroxy-3-methoxy-benzyl)-[1,4]diazepan-1-yl]-3-pyridin-4-yl-propenone], on ROCK2 [2], the inhibition at 10 µM was 72.5%.
